What was measured:
T47D cells = experiment: Anti-HER2 mAb delivery efficiency using LL37-derived peptide constructs; format: cell-based, human; details: for Delivery efficiency: peptide conjugated to anti-HER2 mAb light chain, 100 nM Ab, Z-GFP (PEP#6, 35-43) or Goat anti-human IgG-AlexaFluor 488 (PEP#6, 47-94) fluorescence microscopy; for delivery enhancement (in words): peptide conjugated to anti-HER2 mAb
Procedure: LL37 and LL37-derived peptides were produced synthetically with two additional N-terminal glycine residues (e.g. as shown in SEQ ID NO:2 compared to SEQ ID NO: 1) to enable the sortase reaction. The LL37-derived peptides (PEP#35 to #43, SEQ ID NOs: 13-21) were all dissolved at 10 mg/ml in phosphate buffer saline (PBS) at room temperature, sterile-filtered, and stored at -20° C. freezer. PEP#48 (SEQ ID: 74), PEP#49 (SEQ ID No: 75), and PEP#60 (SEQ ID NO: 105) were dissolved in 20% (v/v) acetonitrile in PBS. PEP#47 (SEQ ID NO: 96), PEP#86 (SEQ ID NO: 78), PEP#98 (SEQ ID NO: 79), PEP#99 (SEQ ID NO: 80), PEP#102 (SEQ ID NO: 82), and PEP#104 (SEQ ID NO: 84) were dissolved in DMSO. PEP#50 (SEQ ID No: 76), PEP#51 (SEQ ID No: 97), PEP#55 (SEQ ID No: 77), PEP#58 (SEQ ID No: 103), PEP#59 (SEQ ID No: 104), PEP#61 (SEQ ID No: 106), PEP#62 (SEQ ID No: 107), PEP#63 (SEQ ID No: 108), PEP#64 (SEQ ID No: 109), PEP#66 (SEQ ID No: 110), and PEP#94 (SEQ ID No: 35) were all dissolved in PBS. […] The reaction was incubated inside a 37° C. incubator for 16 hours, and then EDTA (pH 7.5) was added to 10 mM in the reaction mixture to chelate calcium and stop the reaction.
Delivery assay: The following delivery assay method was used on the anti-HER2 mAbs conjugated to the PEP#6, #35, #36, #37, #38, #39, #40, #41, #42, and #43 described in Table 7. […] The plates were then removed from the incubator, and the culturing media was removed from the adherent cells. The adherent cells were washed gently with an equal volume of ice-cold PBS. Then, the PBS wash was replaced 250 µl of fresh PBS for fluorescence microscope imaging.
At the end of incubation, the adherent target cells were washed twice with ice-cold PBS, fixed with 2% (w/v) formaldehyde in PBS at room temperature for 15 minutes, and washed twice with PBS at room temperature. The fixed adherent target cells were then permeabilized with 0.05% (v/v) Tween-20 in PBS at room temperature for 15 minutes. The permeabilized cells were then incubated with 5% (v/v) FBS, 0.05% (v/v) Tween-20 in PBS at 37 degree Celsius incubator for 30 minutes. The secondary antibody, Goat anti-human IgG-AlexaFluor 488, was added to 5 ug/ml in 5% (v/v) FBS, 0.05% (v/v) Tween-20 in PBS, and incubated with the treated target cells at 37 degree Celsius incubator for 30 minutes. After incubation, the labelled cells were washed twice with PBS, and stored in storage buffer [5% (v/v) FBS in PBS] at 4 degree Celsius until fluorescence microscope imaging. The delivery of mAb and mAb-LL37-derived peptides were determined qualitatively by estimating the green fluorescence intensity emitted from the AlexFluor488-labelled secondary antibody bound to mAb or mAb-LL37-derived peptides.

LnCap = experiment: Delivery assay, Goat anti-human IgG-AlexaFluor 488 fluorescence microscopy, LnCap; format: cell-based; parameters: key to Delivery efficiency of mAb (i.e., mAb): +++: Strong Alexa Fluor 488 (cyan/green) fluorescent intensity; ++: Medium level of Alexa Fluor 488 (cyan/green) fluorescent intensity; +: Weak, but noticeable Alexa Fluor 488 (cyan/green) fluorescent intensity; -: No signal; details: Target cell LnCap; for Delivery enhancement: mAb-LL37 vs mAb
Procedure: (§1) Delivery assay. […] The culturing media containing the unbound antibodies were removed, and the MDA-MB-468 cells were washed with PBS. The adherent cells were treated with trypsin at 37 degree C for 1-2 minutes, neutralized in FACS buffer (2% v/v FBS, 2 mM EDTA, 0.05% w/v sodium azide in PBS), and transferred to FACS tubes on ice. The delivery of antibodies to cells was quantitated by measuring the red fluorescence intensity (i.e., PE-Texas Red color channel in the FACS detector) emitted fromZ-RFP bound to antibody. […] At the end of incubation, the adherent target cells were washed twice with ice-cold PBS, fixed with 2% (w/v) formaldehyde in PBS at room temperature for 15 minutes, and washed twice with PBS at room temperature. The fixed adherent target cells were then permeabilized with 0.05% (v/v) Tween-20 in PBS at room temperature for 15 minutes. The permeabilized cells were then incubated with 5% (v/v) FBS, 0.05% (v/v) Tween-20 in PBS at 37 degree Celsius incubator for 30 minutes. The secondary antibody, Goat anti-human IgG-AlexaFluor 488, was added to 5 ug/ml in 5% (v/v) FBS, 0.05% (v/v) Tween-20 in PBS, and incubated with the treated target cells at 37 degree Celsius incubator for 30 minutes. After incubation, the labelled cells were washed twice with PBS, and stored in storage buffer [5% (v/v) FBS in PBS] at 4 degree Celsius until fluorescence microscope imaging. The delivery of mAb and mAb-LL37 were determined qualitatively by estimating the green fluorescence intensity emitted from the AlexFluor488-labelled secondary antibody bound to mAb or mAb-LL37. […] However, Ramos [NT] No. ATCC CRL-1596, lot#70016960) was grown in suspension culture (i.e., in contrast to adherent cells), and the modification to the methods involves simply harvesting cells from the shaking culture flask for incubation with antibodies (or LL37-linked antibodies), and frequently pelleting down the target cells in the V-bottom 96-well polypropylene plate for downstream processes of PBS washing, fixing, permeabilizing, blocking, and the secondary antibody labelling. The secondary anti-human IgG-AlexaFluor488 labelled target cells were washed and resuspended in PBS, and transferred to the clear polystyrene 48-well plates for fluorescence microscope imaging.

OVCAR3 = experiment: Delivery assay, Goat anti-human IgG-AlexaFluor 488 fluorescence microscopy, OVCAR3; format: cell-based; parameters: key to Delivery efficiency of mAb (i.e., mAb): +++: Strong Alexa Fluor 488 (cyan/green) fluorescent intensity; ++: Medium level of Alexa Fluor 488 (cyan/green) fluorescent intensity; +: Weak, but noticeable Alexa Fluor 488 (cyan/green) fluorescent intensity; -: No signal; details: Target cell OVCAR3; for Delivery enhancement: mAb-LL37 vs mAb
Procedure: as §1, with “No. ATCC CRL-1596, lot#70016960) was grown in suspension culture (i.e., in contrast to adherent cells), and the modification to the methods involves simply harvesting cells from the shaking culture flask for incubation with antibodies (or LL37-linked antibodies), and frequently pelleting down the target cells in the V-bottom 96-well polypropylene plate for downstream processes of PBS washing, fixing, permeabilizing, blocking, and the secondary antibody labelling.” left out

RT4v6 = experiment: Delivery assay, Goat anti-human IgG-AlexaFluor 488 fluorescence microscopy, RT4v6; format: cell-based; parameters: key to Delivery efficiency of mAb (i.e., mAb): +++: Strong Alexa Fluor 488 (cyan/green) fluorescent intensity; ++: Medium level of Alexa Fluor 488 (cyan/green) fluorescent intensity; +: Weak, but noticeable Alexa Fluor 488 (cyan/green) fluorescent intensity; -: No signal; details: Target cell RT4v6; for Delivery enhancement: mAb-LL37 vs mAb
Procedure: as §1, with “No. ATCC CRL-1596, lot#70016960) was grown in suspension culture (i.e., in contrast to adherent cells), and the modification to the methods involves simply harvesting cells from the shaking culture flask for incubation with antibodies (or LL37-linked antibodies), and frequently pelleting down the target cells in the V-bottom 96-well polypropylene plate for downstream processes of PBS washing, fixing, permeabilizing, blocking, and the secondary antibody labelling.” left out

CD20-positive RL cells = experiment: Delivery assay, Z-RFP FACS, RL cells; format: cell-based, human; details: 0.5 nM, 5 nM, 50 nM; 30 minutes
Procedure: For FIG. 30 Panel D, Ofatumumab-LL37 was made from Ofatumumab (SEQ ID NOs: 40 and 41) in a sortase-catalyzed reaction to GG-LL37 peptide (SEQ ID NO: 2), and purified on Protein A chromatography. For cell delivery assay, Ofatumumab/Ofatumumab-LL37 and equimolar equimolar number of Z-RFP were added to RL cells at described final concentration (i.e., 0.5 nM, 5 nM, and 50 nM) and incubated for 30 minutes. The liquid suspension culture was gently spun in a microcentrifuge at 2000 rpm for 4 minutes, and the clear supernatant was removed, and the cell pellet was washed in PBS and resuspended in FACS buffer (1XPBS, 2% FBS, 1 mM EDTA, 0.02% sodium azide) for analysis by FACS (Texas Red channel).

Ramos = experiment: Delivery assay, Goat anti-human IgG-AlexaFluor 488 fluorescence microscopy, Ramos; format: cell-based; parameters: key to Delivery efficiency of mAb (i.e., mAb): +++: Strong Alexa Fluor 488 (cyan/green) fluorescent intensity; ++: Medium level of Alexa Fluor 488 (cyan/green) fluorescent intensity; +: Weak, but noticeable Alexa Fluor 488 (cyan/green) fluorescent intensity; -: No signal
Procedure: Delivery assay. […] The culturing media containing the unbound antibodies were removed, and the MDA-MB-468 cells were washed with PBS. The adherent cells were treated with trypsin at 37 degree C for 1-2 minutes, neutralized in FACS buffer (2% v/v FBS, 2 mM EDTA, 0.05% w/v sodium azide in PBS), and transferred to FACS tubes on ice. The delivery of antibodies to cells was quantitated by measuring the red fluorescence intensity (i.e., PE-Texas Red color channel in the FACS detector) emitted fromZ-RFP bound to antibody. […] At the end of incubation, the adherent target cells were washed twice with ice-cold PBS, fixed with 2% (w/v) formaldehyde in PBS at room temperature for 15 minutes, and washed twice with PBS at room temperature. […] After incubation, the labelled cells were washed twice with PBS, and stored in storage buffer [5% (v/v) FBS in PBS] at 4 degree Celsius until fluorescence microscope imaging. The delivery of mAb and mAb-LL37 were determined qualitatively by estimating the green fluorescence intensity emitted from the AlexFluor488-labelled secondary antibody bound to mAb or mAb-LL37. […] The secondary anti-human IgG-AlexaFluor488 labelled target cells were washed and resuspended in PBS, and transferred to the clear polystyrene 48-well plates for fluorescence microscope imaging.

KRIVQRIKDFL [PEP#60]
Delivery efficiency (T47D cells): +

KSKEKIGKEFKRIVQ [PEP#42]
Delivery efficiency (T47D cells): +

LLGDFFRASKEKIGKEFAAIVQAIKDFLANLVPATES [PEP#50]
delivery enhancement (in words) (T47D cells): decrease in, but not abrogation of, delivery enhancement
Delivery efficiency (T47D cells): +

LLGDFFRKSKEKIGKEFKRIVQRIK [PEP#35]
Delivery efficiency (T47D cells): +

LLGDFFRKSKEKIGKEFKRIVQRIKDFLRNLVPRTESC [PEP#94]
Delivery efficiency (T47D cells): +++ (Same as LL37)

LLGDFFRQSKEKIGKEFQQIVQQIKDFLQNLVPQTES [PEP#49]
delivery enhancement (in words) (T47D cells): abolished the antibody delivery enhancement

Labetuzumab [Anti-CEACAM5, Labetuzumab]
Delivery efficiency of mAb (i.e., mAb) (LnCap; 100 nM, 3 hours): +
Delivery enhancement (LnCap): YES
Delivery enhancement (LnCap; listed as labetuzumab): significantly increases the delivery

Lifastuzumab [Anti-NaPi2b, Lifastuzumab]
Delivery efficiency of mAb (i.e., mAb) (OVCAR3; 100 nM, 3 hours): +
Delivery enhancement (OVCAR3): YES
Delivery enhancement (OVCAR3; listed as lifastuzumab): significantly increases the delivery
Delivery enhancement (RT4v6): significantly increases the delivery

MMWLL [PEP#47, reference compound]
delivery enhancement (in words) (T47D cells): confirmed to not enhance antibody delivery to target cells alone

Ofatumumab-LL37
targeted delivery (in words) (CD20-positive RL cells): more efficient than anti-CD20 mAb (i.e., Ofatumumab) at targeted delivery

Rituximab [Anti-CD20, Rituximab]
Delivery efficiency of mAb (i.e., mAb) (Ramos; Target cell Ramos (suspension culture)): ++
Delivery enhancement (Ramos; Target cell Ramos, mAb-LL37 vs mAb): YES

Vofatamab [Anti-FGFR3, Vofatamab]
Delivery efficiency of mAb (i.e., mAb) (RT4v6; 100 nM, 3 hours): +
Delivery enhancement (RT4v6): YES

From US20230227547A1, “ANTIBODY-PAYLOAD CONJUGATES WITH ENHANCED DELIVERY DOMAIN AND USES THEREOF” (IPROGEN BIOTECH INC., priority 2019, published 2023)
